From BindingDB's records for patent US20250195475 (Inventisbio, 2025)

Molecular target: Cyclin-dependent kinase 2/G1/S-specific cyclin-E1 (Homo sapiens, UniProt P24941+P24864)
Test: TR-FRET Assay
Method: Compound Preparation. Dissslove the compounds into DMSO solution to make 10 mM DMSO stock. Serially dilute the stock solution from highest concentration down to lowest in DMSO to make the compound stock plate (100× stock plates). To make 5× compound intermediate plate, add 38 μL of assay buffer (50 mM HEPES, pH 7.5, 0.05 mg/mL BSA, 10 mM MgCl2, 1 mM EGTA, 0.01% Tween-20, 2 mM DTT) into each well of the V-bottom plate; then transfer 2 μL of the stock compound solution of each concentration from the compound stock plate (100× stock), and mix well. Enzyme reaction. Transfer 2 μL compound from 5× intermediate plate into assay plate, then add 4 μL/well 2.5× Enzyme mix to assay plate, incubation for 10 min at room temperature. For positive control wells, add 4 μL/well assay buffer instead of Enzyme mix. Then add 4 μL/well 2.5× Substrate mix to assay plate, and incubation at 25° C. for 30 min at room temperature. After reaction, 10 μL 2× Detection mix (final 15 mM EDTA, 1× LANCE Detection Buffer, 0.5 nM Detection antibody) was added and incubated for 1 h prior to detection with excitation and emission at 320 and 665 nm (Tecan Spark TR-FRET mode Tecan).

`COCc1cc(C(=O)Nc2cc([C@H]3CC[C@@H](OC(=O)N4CCC5(CCC5)C4)C3)[nH]n2)n(C)n1` [US20250195475, Example 6] was tested, and the IC50 was 0.8 nM.
